Results reported in article PMC11085544, “Anticholinesterase Activity of Methanolic Extract of Amorpha fruticosa Flowers and Isolation of Rotenoids and Putrescine and Spermidine Derivatives” (Plants, 2024).

Legend:
Type in all cases: biochemical
[1] = target: T1, BuChE (butyrylcholinesterase) (Equus caballus, UniProt P81908); experiment: Ellman colorimetric assay with equine serum BuChE, % inhibition at […]
T1 construct: gene BCHE

[2] = target: T2, AChE (acetylcholinesterase) (Electrophorus electricus, UniProt O42275); experiment: Ellman colorimetric assay with electric eel AChE
T2 sequence (O42275 24-633): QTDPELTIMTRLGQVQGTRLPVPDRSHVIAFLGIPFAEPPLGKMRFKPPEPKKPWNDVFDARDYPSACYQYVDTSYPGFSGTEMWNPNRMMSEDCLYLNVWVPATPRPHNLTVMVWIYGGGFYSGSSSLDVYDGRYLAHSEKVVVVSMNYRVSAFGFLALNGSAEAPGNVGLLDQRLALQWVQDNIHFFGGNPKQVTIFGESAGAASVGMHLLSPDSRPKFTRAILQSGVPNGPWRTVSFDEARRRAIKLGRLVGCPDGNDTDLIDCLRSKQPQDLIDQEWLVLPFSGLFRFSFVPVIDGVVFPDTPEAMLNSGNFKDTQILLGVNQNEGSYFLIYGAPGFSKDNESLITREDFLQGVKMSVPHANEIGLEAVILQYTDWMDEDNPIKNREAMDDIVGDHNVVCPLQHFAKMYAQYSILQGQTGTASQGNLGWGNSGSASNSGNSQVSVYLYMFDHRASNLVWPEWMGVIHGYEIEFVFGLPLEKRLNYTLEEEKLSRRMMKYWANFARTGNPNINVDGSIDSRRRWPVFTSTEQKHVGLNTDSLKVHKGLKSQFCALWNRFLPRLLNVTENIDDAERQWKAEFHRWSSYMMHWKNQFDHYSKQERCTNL

[3] = target: T2, AChE (acetylcholinesterase); experiment: Ellman colorimetric assay with electric eel AChE, % inhibition at […]; conditions: 100 µM

T1 sequence (P81908 whole entry): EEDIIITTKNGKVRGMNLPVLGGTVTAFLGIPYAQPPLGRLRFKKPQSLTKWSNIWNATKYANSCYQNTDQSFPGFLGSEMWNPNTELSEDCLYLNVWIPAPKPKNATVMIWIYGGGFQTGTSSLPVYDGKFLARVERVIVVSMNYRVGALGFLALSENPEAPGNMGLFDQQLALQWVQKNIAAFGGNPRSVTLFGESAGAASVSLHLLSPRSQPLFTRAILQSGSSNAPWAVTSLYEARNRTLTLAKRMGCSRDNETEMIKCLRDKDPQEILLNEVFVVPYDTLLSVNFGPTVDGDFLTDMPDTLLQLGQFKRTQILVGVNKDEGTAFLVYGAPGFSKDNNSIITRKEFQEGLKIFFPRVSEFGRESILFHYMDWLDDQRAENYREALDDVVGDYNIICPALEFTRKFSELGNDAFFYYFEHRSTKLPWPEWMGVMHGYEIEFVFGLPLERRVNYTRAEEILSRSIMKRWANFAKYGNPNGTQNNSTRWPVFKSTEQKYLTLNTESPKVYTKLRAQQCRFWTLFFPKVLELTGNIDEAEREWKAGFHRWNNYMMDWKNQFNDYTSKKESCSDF

Compound | inhibition at 100 µM [1] | IC50 [2] | % Inhibition of AChE [3]
O=C(/C=C/c1ccc(O)cc1)NCCCCN(CCCNC(=O)/C=C/c1ccc(O)cc1)C(=O)/C=C/c1ccc(O)cc1 [compound 5, N^1,N^5,N^10-(E)-tri-p-coumaroylspermidine] | 43.8 ± 1.9% | 102 ± 8.1 µM | –
COC1=CC(=O)[C@]2(C=C1OC)OC[C@H]1Oc3c(ccc4c3C=CC(C)(C)O4)C(=O)[C@H]12 [compound 8, amorphispironone] | 37.6 ± 2.7% | – | –
6-deoxyclitoriacetal [compound 7] | – | – | 37.9 ± 5.0
